Data: ChEMBL document CHEMBL5036383, “Azapodophyllotoxin Causes Lymphoma and Kidney Cancer Regression by Disrupting Tubulin and Monoglycerols” (2022)
Active and inactive are the calls of the source. The rule behind the calls is not given here.

Tests used:
[1] = tested on: A498; assay: Anticancer activity against human A498 cells assessed as reduction of cell viability at 70 nM relative to control; format: functional
[2] = tested on: CCRF-CEM; assay: Antitumour activity against human CCRF-CEM xenografted in mouse assessed as reduction of tumour volume, IT measured after 1 week; format: functional; settings: time 1.0 weeks
[3] = Anticancer activity against human DND41 cells assessed as reduction of cell viability at 70 nM relative to control; format: functional
[4] = Anticancer activity against human P493-6 cells assessed as reduction of cell viability at 280 nM relative to control; format: functional
[5] = tested on: KOPTK1; assay: Anticancer activity against human KOPT-K1 cells assessed as reduction of cell viability at 280 nM relative to control; format: functional
[6] = tested on: CCRF-CEM; assay: Anticancer activity against human CCRF-CEM cells assessed as reduction of cell viability at 70 nM relative to control; format: functional
[7] = tested on: CCRF-CEM; assay: Anticancer activity against human CCRF-CEM cells assessed as reduction of cell viability at 280 nM relative to control; format: functional
[8] = Anticancer activity against human 6780 cell cells assessed as reduction of cell viability at 140 nM relative to control; format: functional
[9] = Anticancer activity against human 6780 cell cells assessed as reduction of cell viability at 70 nM relative to control; format: functional
[10] = tested on: CCRF-CEM; assay: Anticancer activity against human CCRF-CEM cells assessed as reduction of cell viability at 140 nM relative to control; format: functional
[11] = Anticancer activity against transgenic mouse RCC E28 cells assessed as reduction of cell proliferation at 70 nM for 48 hrs relative to control; format: functional; parameters: scale not given: the % may be the effect or the level left
[12] = Anticancer activity against transgenic mouse RCC E28 cells assessed as reduction of cell proliferation at 140 nM for 48 hrs relative to 70 uM treatment; format: functional
[13] = Anticancer activity against human 6780 cell cells assessed as reduction of cell viability at 280 nM relative to control; format: functional
[14] = target: Tubulin (Homo sapiens) (UniProt P68371+Q9H4B7+P0DPH7+P68366+Q13509+Q71U36+P04350+Q3ZCM7+P07437+P68363+Q9BQE3+Q6PEY2+Q13885+Q9BVA1+Q9BUF5); assay: Inhibition of tubulin polymerization (unknown origin); format: protein-complex assay
[15] = tested on: KOPTK1; assay: Anticancer activity against human KOPT-K1 cells assessed as reduction of cell viability at 140 nM relative to control; format: functional
[16] = tested on: A498; assay: Antitumour activity against human A498 cells xenografted in mouse assessed as reduction of tumour weight, IT measured after 1 week; format: functional, cell-based; settings: time 1.0 weeks
[17] = tested on: Mus musculus; assay: Antitubulin activity against human CCRF-CEM cells xenografted in IT dosed mouse assessed as decrease in tubulin level treated for 1 week by nano-immuno assay; format: functional, organism-based; settings: time 1.0 weeks
[18] = Anticancer activity against human P493-6 cells assessed as reduction of cell viability at 70 nM relative to control; format: functional
[19] = tested on: Mus musculus; assay: Antitubulin activity against human CCRF-CEM cells xenografted in IT dosed mouse assessed as fold decrease in tubulin fine needle aspirates treated for 1 week by nano-immuno assay relative to control; format: functional; settings: time 1 weeks
[20] = tested on: KOPTK1; assay: Anticancer activity against human KOPT-K1 cells assessed as reduction of cell viability at 70 nM relative to control; format: functional
[21] = Anticancer activity against human P493-6 cells assessed as reduction of cell viability at 140 nM relative to control; format: functional
[22] = tested on: CCRF-CEM; assay: Inhibition of lipid metabolism in human CCRF-CEM cells assessed as increase in mono glycerol level measured after 1 week treatment by DESI-MSI; format: functional, cell-based; settings: time 1.0 weeks

## O=C1OCC2=C1C(c1ccccc1)c1cc3c(cc1N2CCO)OCO3 (stereo not drawn)
[1]
  Activity: 30%

## COc1cc(C2C3=C(COC3=O)N(CCO)c3cc4c(cc32)CCC4)cc(OC)c1OC (stereo not drawn)
[2]
  Activity: Active
[3]
  Activity: 95%
[4]
  Activity: 98%
[5]
  Activity: 89%
[6]
  Activity: 90%
[1]
  Activity: 95%
[7]
  Activity: 96%
[8]
  Activity: 94%
[9]
  Activity: 90%
[10]
  Activity: 92%
[11]
  Activity: 90%
[12]
  fold change (FC): 2
[13]
  Activity: 96%
[14]
  inhibition: Active
[15]
  Activity: 87%
[16]
  Activity: Active
[17]
  Activity: Active
[18]
  Activity: 85%
[19]
  fold change (FC): 2
[20]
  Activity: 85%
[21]
  Activity: 90%
[22]
  inhibition: Active

## O=C1OCC2=C1C(c1ccccc1)c1cc3c(cc1N2CCO)OCCO3 (stereo not drawn)
[1]
  Activity: 30%

## O=C1OCC2=C1C(c1cccc(Br)c1)c1cc3c(cc1N2CCO)CCC3 (stereo not drawn)
[1]
  Activity: 90%

## O=C1OCC2=C1C(c1cccc(Br)c1)c1cc3c(cc1N2CCO)OCCO3 (stereo not drawn)
[1]
  Activity: 87%

## O=C1OCC2=C1C(c1cccc(C(F)(F)F)c1)c1cc3c(cc1N2CCO)OCCO3 (stereo not drawn)
[1]
  Activity: 80%

## O=C1OCC2=C1C(c1cccc(C(F)(F)F)c1)c1cc3c(cc1N2CCO)CCC3 (stereo not drawn)
[1]
  Activity: 83%
